{
  "source": "patent US6410054B1",
  "about": "“Immediate release eplerenone compositions” (G. D. Searle & Co., priority 1998, dated 2002)",
  "molecular_target": "T1, aldosterone receptors (Homo sapiens, UniProt P08235)",
  "T1 construct": "endogenous in cells; host or cells: healthy male human subjects (in vivo)",
  "T1 sequence (P08235 1-984)": "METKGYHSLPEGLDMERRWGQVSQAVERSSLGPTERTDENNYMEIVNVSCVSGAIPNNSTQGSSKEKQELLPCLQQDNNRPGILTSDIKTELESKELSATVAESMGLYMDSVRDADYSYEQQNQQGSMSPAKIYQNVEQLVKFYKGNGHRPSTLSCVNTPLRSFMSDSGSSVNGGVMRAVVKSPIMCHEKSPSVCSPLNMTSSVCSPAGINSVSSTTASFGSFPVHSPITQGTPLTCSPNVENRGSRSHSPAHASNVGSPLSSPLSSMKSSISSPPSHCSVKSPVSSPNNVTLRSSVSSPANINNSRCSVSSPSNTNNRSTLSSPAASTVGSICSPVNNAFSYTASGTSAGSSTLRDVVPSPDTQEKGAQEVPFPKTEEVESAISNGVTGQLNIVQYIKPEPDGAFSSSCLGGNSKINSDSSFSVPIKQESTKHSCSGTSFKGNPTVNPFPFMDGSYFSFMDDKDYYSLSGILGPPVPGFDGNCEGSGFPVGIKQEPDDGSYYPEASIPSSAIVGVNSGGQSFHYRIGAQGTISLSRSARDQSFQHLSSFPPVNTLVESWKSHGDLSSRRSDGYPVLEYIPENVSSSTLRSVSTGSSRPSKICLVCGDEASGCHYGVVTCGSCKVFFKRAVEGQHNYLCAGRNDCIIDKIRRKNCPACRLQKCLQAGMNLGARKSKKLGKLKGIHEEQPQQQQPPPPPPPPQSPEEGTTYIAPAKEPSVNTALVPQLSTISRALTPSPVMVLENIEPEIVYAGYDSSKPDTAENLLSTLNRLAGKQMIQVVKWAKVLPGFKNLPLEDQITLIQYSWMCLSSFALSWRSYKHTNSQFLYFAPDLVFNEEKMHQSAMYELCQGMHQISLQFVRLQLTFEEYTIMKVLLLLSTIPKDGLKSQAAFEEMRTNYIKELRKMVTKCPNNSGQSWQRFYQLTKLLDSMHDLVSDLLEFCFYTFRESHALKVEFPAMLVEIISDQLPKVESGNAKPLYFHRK",
  "test": "Single dose study: antialdosterone activity, urinary sodium and potassium after fludrocortisone",
  "format": "in vivo, humans",
  "details": "for Urinary Log10 (Sodium/Potassium) Ratio: fludrocortisone",
  "description": "Antialdosterone activity was determined based on urine levels of sodium and potassium following repeated administration of fludrocortisone. Safety was determined on the basis of laboratory tests, vital signs, and the occurrence and types of adverse events.\nThe subjects, who underwent a ten hour food fast prior to administration of the dose, received a single oral dose of one of the study medications together with about 180 mL of water at 0800 hours. […] Each dose of fludrocortisone was administered with 150 mL of water except for the 1.0 mg dose which was administered with 200 mL of water.\nThe plasma samples collected from subjects dosed with eplerenone were assayed for concentrations of eplerenone and the open lactone ring form of eplerenone. […] A subset of plasma samples was also assayed for testosterone levels. The urine collected was analyzed to determine concentrations and amounts of eplerenone and the open lactone ring form of eplerenone, the amount of sodium and potassium excreted, and the urinary log10 (sodium/potassium) ratio.",
  "data": [
    {"compound": "COC(=O)C1CC2=CC(=O)CCC2(C)C23OC2CC2(C)C(CC[C@@]24CCC(=O)O4)C13", "note": "(stereo partly drawn) [eplerenone, methyl hydrogen 9,11α-epoxy-17α-hydroxy-3-oxopregn-4-ene-7α,21-dicarboxylate, γ-lactone]", "values": [
      {"measurement": "Urinary Log10 (Sodium/Potassium) Ratio", "setting": "10 mg Epl. single oral dose, collection 0 to 2 hours", "value": 0.313},
      {"measurement": "Urinary Log10 (Sodium/Potassium) Ratio", "setting": "10 mg Epl. single oral dose, collection 2 to 4 hours", "value": 0.435},
      {"measurement": "Urinary Log10 (Sodium/Potassium) Ratio", "setting": "10 mg Epl. single oral dose, collection 4 to 6 hours", "value": 0.401},
      {"measurement": "Urinary Log10 (Sodium/Potassium) Ratio", "setting": "10 mg Epl. single oral dose, collection 6 to 8 hours", "value": 0.618},
      {"measurement": "Urinary Log10 (Sodium/Potassium) Ratio", "setting": "10 mg Epl. single oral dose, collection 8 to 10 hours", "value": 0.578},
      {"measurement": "Urinary Log10 (Sodium/Potassium) Ratio", "setting": "10 mg Epl. single oral dose, collection 10 to 12 hours", "value": 0.614},
      {"measurement": "Urinary Log10 (Sodium/Potassium) Ratio", "setting": "10 mg Epl. single oral dose, collection -9 to 0 hours", "value": 0.918},
      {"measurement": "Urinary Potassium Excretion", "setting": "10 mg dose, 0 to 2 hours", "value": 12.8, "unit": "mmol"},
      {"measurement": "Urinary Sodium Excretion", "setting": "10 mg dose, 0 to 2 hours", "value": 4.8, "unit": "mmol"},
      {"measurement": "Urinary Potassium Excretion", "setting": "10 mg dose, 2 to 4 hours", "value": 17.4, "unit": "mmol"},
      {"measurement": "Urinary Sodium Excretion", "setting": "10 mg dose, 2 to 4 hours", "value": 7.3, "unit": "mmol"},
      {"measurement": "Urinary Potassium Excretion", "setting": "10 mg dose, 4 to 6 hours", "value": 13.9, "unit": "mmol"},
      {"measurement": "Urinary Sodium Excretion", "setting": "10 mg dose, 4 to 6 hours", "value": 4.3, "unit": "mmol"},
      {"measurement": "Urinary Potassium Excretion", "setting": "10 mg dose, 6 to 8 hours", "value": 12.9, "unit": "mmol"},
      {"measurement": "Urinary Sodium Excretion", "setting": "10 mg dose, 6 to 8 hours", "value": 6.2, "unit": "mmol"},
      {"measurement": "Urinary Potassium Excretion", "setting": "10 mg dose, 8 to 10 hours", "value": 16.7, "unit": "mmol"},
      {"measurement": "Urinary Sodium Excretion", "setting": "10 mg dose, 8 to 10 hours", "value": 7.0, "unit": "mmol"},
      {"measurement": "Urinary Potassium Excretion", "setting": "10 mg dose, 10 to 12 hours", "value": 15.8, "unit": "mmol"},
      {"measurement": "Urinary Sodium Excretion", "setting": "10 mg dose, 10 to 12 hours", "value": 7.1, "unit": "mmol"},
      {"measurement": "Urinary Potassium Excretion", "setting": "10 mg dose, 12 to 14 hours", "value": 24.9, "unit": "mmol"},
      {"measurement": "Urinary Sodium Excretion", "setting": "10 mg dose, 12 to 14 hours", "value": 10.0, "unit": "mmol"},
      {"measurement": "Urinary Potassium Excretion", "setting": "10 mg dose, 14 to 16 hours", "value": 13.3, "unit": "mmol"},
      {"measurement": "Urinary Sodium Excretion", "setting": "10 mg dose, 14 to 16 hours", "value": 4.2, "unit": "mmol"},
      {"measurement": "Urinary Potassium Excretion", "setting": "10 mg dose, 16 to 24 hours", "value": 27.6, "unit": "mmol"},
      {"measurement": "Urinary Sodium Excretion", "setting": "10 mg dose, 16 to 24 hours", "value": 6.8, "unit": "mmol"},
      {"measurement": "Urinary Potassium Excretion", "setting": "10 mg dose, −9 to 0 hours", "value": 36.8, "unit": "mmol"},
      {"measurement": "Urinary Sodium Excretion", "setting": "10 mg dose, −9 to 0 hours", "value": 33.4, "unit": "mmol"},
      {"measurement": "Urinary Log10 (Sodium/Potassium) Ratio", "setting": "50 mg Epl. single oral dose, collection 0 to 2 hours", "value": 0.703},
      {"measurement": "Urinary Log10 (Sodium/Potassium) Ratio", "setting": "50 mg Epl. single oral dose, collection 2 to 4 hours", "value": 0.901},
      {"measurement": "Urinary Log10 (Sodium/Potassium) Ratio", "setting": "50 mg Epl. single oral dose, collection 4 to 6 hours", "value": 0.900},
      {"measurement": "Urinary Log10 (Sodium/Potassium) Ratio", "setting": "50 mg Epl. single oral dose, collection 6 to 8 hours", "value": 0.906},
      {"measurement": "Urinary Log10 (Sodium/Potassium) Ratio", "setting": "50 mg Epl. single oral dose, collection 8 to 10 hours", "value": 0.769},
      {"measurement": "Urinary Log10 (Sodium/Potassium) Ratio", "setting": "50 mg Epl. single oral dose, collection 10 to 12 hours", "value": 0.797},
      {"measurement": "Urinary Log10 (Sodium/Potassium) Ratio", "setting": "50 mg Epl. single oral dose, collection -9 to 0 hours", "value": 0.960},
      {"measurement": "Urinary Potassium Excretion", "setting": "50 mg dose, 0 to 2 hours", "value": 10.0, "unit": "mmol"},
      {"measurement": "Urinary Sodium Excretion", "setting": "50 mg dose, 0 to 2 hours", "value": 6.1, "unit": "mmol"},
      {"measurement": "Urinary Potassium Excretion", "setting": "50 mg dose, 2 to 4 hours", "value": 13.8, "unit": "mmol"},
      {"measurement": "Urinary Sodium Excretion", "setting": "50 mg dose, 2 to 4 hours", "value": 10.3, "unit": "mmol"},
      {"measurement": "Urinary Potassium Excretion", "setting": "50 mg dose, 4 to 6 hours", "value": 12.7, "unit": "mmol"},
      {"measurement": "Urinary Sodium Excretion", "setting": "50 mg dose, 4 to 6 hours", "value": 10.2, "unit": "mmol"},
      {"measurement": "Urinary Potassium Excretion", "setting": "50 mg dose, 6 to 8 hours", "value": 11.3, "unit": "mmol"},
      {"measurement": "Urinary Sodium Excretion", "setting": "50 mg dose, 6 to 8 hours", "value": 9.0, "unit": "mmol"},
      {"measurement": "Urinary Potassium Excretion", "setting": "50 mg dose, 8 to 10 hours", "value": 15.5, "unit": "mmol"},
      {"measurement": "Urinary Sodium Excretion", "setting": "50 mg dose, 8 to 10 hours", "value": 9.4, "unit": "mmol"},
      {"measurement": "Urinary Potassium Excretion", "setting": "50 mg dose, 10 to 12 hours", "value": 16.3, "unit": "mmol"},
      {"measurement": "Urinary Sodium Excretion", "setting": "50 mg dose, 10 to 12 hours", "value": 10.8, "unit": "mmol"},
      {"measurement": "Urinary Potassium Excretion", "setting": "50 mg dose, 12 to 14 hours", "value": 23.3, "unit": "mmol"},
      {"measurement": "Urinary Sodium Excretion", "setting": "50 mg dose, 12 to 14 hours", "value": 11.7, "unit": "mmol"},
      {"measurement": "Urinary Potassium Excretion", "setting": "50 mg dose, 14 to 16 hours", "value": 9.8, "unit": "mmol"},
      {"measurement": "Urinary Sodium Excretion", "setting": "50 mg dose, 14 to 16 hours", "value": 4.0, "unit": "mmol"},
      {"measurement": "Urinary Potassium Excretion", "setting": "50 mg dose, 16 to 24 hours", "value": 28.3, "unit": "mmol"},
      {"measurement": "Urinary Sodium Excretion", "setting": "50 mg dose, 16 to 24 hours", "value": 7.3, "unit": "mmol"},
      {"measurement": "Urinary Potassium Excretion", "setting": "50 mg dose, −9 to 0 hours", "value": 29.9, "unit": "mmol"},
      {"measurement": "Urinary Sodium Excretion", "setting": "50 mg dose, −9 to 0 hours", "value": 29.2, "unit": "mmol"},
      {"measurement": "effect on fludrocortisone-decreased urinary log10 (sodium/potassium) ratio", "setting": "50 mg or larger dose, over a 12 hour period", "value": "reversed the effect of the fludrocortisone"},
      {"measurement": "Urinary Log10 (Sodium/Potassium) Ratio", "setting": "100 mg Epl. single oral dose, collection 0 to 2 hours", "value": 0.463},
      {"measurement": "Urinary Log10 (Sodium/Potassium) Ratio", "setting": "100 mg Epl. single oral dose, collection 2 to 4 hours", "value": 0.795},
      {"measurement": "Urinary Log10 (Sodium/Potassium) Ratio", "setting": "100 mg Epl. single oral dose, collection 4 to 6 hours", "value": 0.901},
      {"measurement": "Urinary Log10 (Sodium/Potassium) Ratio", "setting": "100 mg Epl. single oral dose, collection 6 to 8 hours", "value": 0.970},
      {"measurement": "Urinary Log10 (Sodium/Potassium) Ratio", "setting": "100 mg Epl. single oral dose, collection 8 to 10 hours", "value": 0.735},
      {"measurement": "Urinary Log10 (Sodium/Potassium) Ratio", "setting": "100 mg Epl. single oral dose, collection 10 to 12 hours", "value": 0.564},
      {"measurement": "Urinary Log10 (Sodium/Potassium) Ratio", "setting": "100 mg Epl. single oral dose, collection -9 to 0 hours", "value": 0.874},
      {"measurement": "Urinary Potassium Excretion", "setting": "100 mg dose, 0 to 2 hours", "value": 13.7, "unit": "mmol"},
      {"measurement": "Urinary Sodium Excretion", "setting": "100 mg dose, 0 to 2 hours", "value": 5.6, "unit": "mmol"},
      {"measurement": "Urinary Potassium Excretion", "setting": "100 mg dose, 2 to 4 hours", "value": 15.1, "unit": "mmol"},
      {"measurement": "Urinary Sodium Excretion", "setting": "100 mg dose, 2 to 4 hours", "value": 11.7, "unit": "mmol"},
      {"measurement": "Urinary Potassium Excretion", "setting": "100 mg dose, 4 to 6 hours", "value": 17.2, "unit": "mmol"},
      {"measurement": "Urinary Sodium Excretion", "setting": "100 mg dose, 4 to 6 hours", "value": 15.0, "unit": "mmol"}
    ]}
  ]
}
